The record followed here is ChEMBL document CHEMBL4130640, “Optimizing a Weakly Binding Fragment into a Potent RORγt Inverse Agonist with Efficacy in an in Vivo Inflammation Model” (J Med Chem, 2018).

In brackets after ≈: the same amount, converted by molar mass.

The conditions of series [1]: pampa.
Series [2] can be described thus: physchem. As to conditions: aqueous solution, pH 6.8.

Turning to `C[C@H](Oc1ncc(NC(=O)Cc2ccncc2)cc1Cl)c1ccccc1`, in series [1], the “log(permeability)” value was -3.7. The thermodynamic solubility (usually the concentration in solution at equilibrium with solid) in series [2] was determined as 28 µM (≈ 10.3 µg/mL).
